From patent publication US20100197724A1, “6.5 -PYRROLOPIPERIDINE TACHYKININ RECEPTOR ANTAGONISTS” (priority 2007, published 2010)

Target: T1, human neurokinin-1 receptor (NK1R) (Homo sapiens, UniProt P25103)
T1 construct: expressed in transfected cells
Experiment: 125I-substance P binding assay of human NK1R expressed in COS or CHO cells
Details: competition with 125I-substance P
Description: Receptor Expression in COS: To express the cloned human neurokinin-1 receptor (NK1R) transiently in COS, the cDNA for the human NK1R was cloned into the expression vector pCDM9 which was derived from pCDM8 (INVITROGEN) by inserting the ampicillin resistance gene (nucleotide 1973 to 2964 from BLUESCRIPT SK+) into the Sac II site. Transfection of 20 ug of the plasmid DNA into 10 million COS cells was achieved by electroporation in 800 ul of transfection buffer (135 mM NaCl, 1.2 mM CaCl2, 1.2 mM MgCl2, 2.4 mM K2HPO4, 0.6 mM KH2PO4, 10 mM glucose, 10 mM HEPES pH 7.4) at 260 V and 950 uF using the IBI GENEZAPPER (IBI, New Haven, Conn.). The cells were incubated in 10% fetal calf serum, 2 mM glutamine, 100 U/ml penicillin-streptomycin, and 90% DMEM media (GIBCO, Grand Island, N.Y.) in 5% CO2 at 37° C. for three days before the binding assay.
Stable Expression in CHO: To establish a stable cell line expressing the cloned human NK1R, the cDNA was subcloned into the vector pRcCMV (INVITROGEN). Transfection of 20 ug of the plasmid DNA into CHO cells was achieved by electroporation in 800 ul of transfection buffer supplemented with 0.625 mg/ml Herring sperm DNA at 300 V and 950 uF using the IBI GENEZAPPER (IBI). The transfected cells were incubated in CHO media [10% fetal calf serum, 100 U/ml penicillin-streptomycin, 2 mM glutamine, 1/500 hypoxanthine-thymidine (ATCC), 90% IMDM media (JRH BIOSCIENCES, Lenexa, Kans.), 0.7 mg/ml G418 (GIBCO)] in 5% CO2 at 37° C. until colonies were visible. Each colony was separated and propagated. The cell clone with the highest number of human NK1R was selected for subsequent applications such as drug screening.
Assay Protocol using COS or CHO: The binding assay of human NK1R expressed in either COS or CHO cells is based on the use of ^125I-substance P (^125I-SP, from DU PONT, Boston, Mass.) as a radioactively labeled ligand which competes with unlabeled substance P or any other ligand for binding to the human NK1R. Monolayer cell cultures of COS or CHO were dissociated by the non-enzymatic solution (SPECIALTY MEDIA, Lavallette, N.J.) and resuspended in appropriate volume of the binding buffer (50 mM Tris pH 7.5, 5 mM MnCl2, 150 mM NaCl, 0.04 mg/ml bacitracin, 0.004 mg/ml leupeptin, 0.2 mg/ml BSA, 0.01 mM phosphoramidon) such that 200 ul of the cell suspension would give rise to about 10,000 cpm of specific ^125I-SP binding (approximately 50,000 to 200,000 cells). In the binding assay, 200 ul of cells were added to a tube containing 20 ul of 1.5 to 2.5 nM of ^125I-SP and 20 ul of unlabeled substance P or any other test compound. The tubes were incubated at 4° C. or at room temperature for 1 hour with gentle shaking. The bound radioactivity was separated from unbound radioactivity by GF/C filter (BRANDEL, Gaithersburg, Md.) which was pre-wetted with 0.1% polyethylenimine. The filter was washed with 3 ml of wash buffer (50 mM Tris pH 7.5, 5 mM MnCl2, 150 mM NaCl) three times and its radioactivity was determined by gamma counter. The activation of phospholipase C by NK1R may also be measured in CHO cells expressing the human NK1R by determining the accumulation of inositol monophosphate which is a degradation product of IP3. CHO cells are seeded in 12-well plate at 250,000 cells per well. After incubating in CHO media for 4 days, cells are loaded with 0.025 uCi/ml of ^3H-myoinositol by overnight incubation. The extracellular radioactivity is removed by washing with phosphate buffered saline. LiCl is added to the well at final concentration of 0.1 mM with or without the test compound, and incubation is continued at 37° C. for […]. Substance P is added to the well at final concentration of 0.3 nM to activate the human NK1R. After 30 min of incubation at 37° C., the media is removed and 0.1 N HCl is added. Each well is sonicated at 4° C. and extracted with CHCl3/methanol (1:1). The aqueous phase is applied to a 1 ml Dowex AG 1X8 ion exchange column. […]

T1 sequence (P25103 whole entry): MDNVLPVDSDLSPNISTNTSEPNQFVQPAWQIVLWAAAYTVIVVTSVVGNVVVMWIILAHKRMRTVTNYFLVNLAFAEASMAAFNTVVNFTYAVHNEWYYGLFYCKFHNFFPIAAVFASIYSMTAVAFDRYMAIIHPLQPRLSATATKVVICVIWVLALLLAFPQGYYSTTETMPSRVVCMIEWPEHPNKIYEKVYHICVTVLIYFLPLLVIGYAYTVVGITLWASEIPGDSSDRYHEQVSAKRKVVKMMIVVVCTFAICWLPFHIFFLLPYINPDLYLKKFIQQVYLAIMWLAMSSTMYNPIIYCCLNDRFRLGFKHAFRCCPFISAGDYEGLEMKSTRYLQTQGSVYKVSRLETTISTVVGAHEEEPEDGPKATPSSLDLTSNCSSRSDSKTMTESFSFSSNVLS

Row | Structure (SMILES) | IC50
1 | Cc1ccccc1[C@H]1[C@@H]2CN(C(=O)C3CCC(=O)N(C)C3)C[C@H]2CCN1C(=O)N(C)[C@H](C)c1cc(C(F)(F)F)cc(C(F)(F)F)c1 (stereo partly drawn) [Example 19, (3aS,4R,7aS)-N-{(1R)-1-[3,5-bis(trifluoromethyl)phenyl]ethyl}-N-methyl-2-[(1-methyl-6-oxopiperidin-3-yl)carbonyl]-4-(2-methylphenyl)octahydro-5H-pyrrolo[3,4-c]pyridine-5-carboxamide] | 0.09 nM
2 | Cc1ccccc1[C@H]1[C@@H]2CN(C(=O)C3CCN(C(N)=O)CC3)C[C@H]2CCN1C(=O)N(C)[C@H](C)c1cc(C(F)(F)F)cc(C(F)(F)F)c1 [Example 20, (3aS,4R,7aS)-2-{[1-(aminocarbonyl)piperidin-4-yl]carbonyl}-N-{(1R)-1-[3,5-bis(trifluoromethyl)phenyl]ethyl}-N-methyl-4-(2-methylphenyl)octahydro-5H-pyrrolo[3,4-c]pyridine-5-carboxamide] | 0.185 nM
3 | Cc1ccccc1[C@H]1[C@@H]2CN(C3CCOCC3)C[C@H]2CCN1C(=O)N(C)[C@H](C)c1cc(C(F)(F)F)cc(C(F)(F)F)c1 [Example 21, (3aS,4R,7aS)-N-{(1R)-1-[3,5-bis(trifluoromethyl)phenyl]ethyl}-N-methyl-4-(2-methylphenyl)-2-(tetrahydro-2H-pyran-4-yl)octahydro-5H-pyrrolo[3,4-c]pyridine-5-carboxamide] | 0.085 nM
4 | CC(=O)N1CCC(N2C[C@H]3CCN(C(=O)N(C)[C@H](C)c4cc(C(F)(F)F)cc(C(F)(F)F)c4)[C@@H](c4ccccc4C)[C@@H]3C2)CC1 [Example 22, (3aS,4R,7aS)-2-(1-acetylpiperidin-4-yl)-N-{(1R)-1-[3,5-bis(trifluoromethyl)phenyl]ethyl}-N-methyl-4-(2-methylphenyl)octahydro-5H-pyrrolo[3,4-c]pyridine-5-carboxamide] | 0.089 nM
5 | Cc1ccccc1[C@H]1C2CN(CC(C)(C)CO)C[C@H]2CCN1C(=O)N(C)[C@H](C)c1cc(C(F)(F)F)cc(C(F)(F)F)c1 (stereo partly drawn) [Example 23] | 0.094 nM
6 | Cc1cc(F)ccc1[C@H]1[C@@H]2CN(Cc3ccccc3)C[C@H]2CCN1C(=O)N(C)[C@H](C)c1cc(C(F)(F)F)cc(C(F)(F)F)c1 [Example 25, (3aS,4R,7aS)-2-benzyl-N-{(1R)-1-[3,5-bis(trifluoromethyl)phenyl]ethyl}-4-(4-fluoro-2-methylphenyl)-N-methyloctahydro-5H-pyrrolo[3,4-c]pyridine-5-carboxamide] | 0.052 nM
7 | Cc1cc(F)ccc1[C@H]1C2CNC[C@H]2CCN1C(=O)N(C)[C@H](C)c1cc(C(F)(F)F)cc(C(F)(F)F)c1 (stereo partly drawn) [Example 26, (3aS,4R,7aS)-N-{(1R)-1-[3,5-bistrifluoromethyl)phenyl]ethyl}-4-(4-fluoro-2-methylphenyl-N-methyloctahydro-5H-pyrrolo[3,4-c]pyridine-5-carboxamide] | 0.031 nM
8 | Cc1cc(F)ccc1[C@H]1[C@@H]2CN(C3=NC(=O)CO3)C[C@H]2CCN1C(=O)N(C)[C@H](C)c1cc(C(F)(F)F)cc(C(F)(F)F)c1 [Example 28, (3aS,4R,7aS)-N-{(1R)-1-[3,5-bis(trifluoromethyl)phenyl]ethyl}-4-(4-fluoro-2-methylphenyl)-N-methyl-2-(4-oxo-4,5-dihydro-1,3-oxazol-2-yl)octahydro-5H-pyrrolo[3,4-c]pyridine-5-carboxamide] | 0.077 nM
9 | Cc1cc(F)ccc1[C@H]1C2CN(C3=CC(=O)OC3)C[C@H]2CCN1C(=O)N(C)[C@H](C)c1cc(C(F)(F)F)cc(C(F)(F)F)c1 (stereo partly drawn) [Example 29] | 0.115 nM
10 | Cc1cc(F)ccc1[C@H]1[C@@H]2CN(C(=O)[C@H](C)O)C[C@H]2CCN1C(=O)N(C)[C@H](C)c1cc(C(F)(F)F)cc(C(F)(F)F)c1 [Example 30, (3aS,4R,7aS)-N-{(1R)-1-[3,5-bis(trifluoromethyl)phenyl]ethyl}-4-(4-fluoro-2-methylphenyl)-2-[(2S)-2-hydroxypropanoyl]-N-methyloctahydro-5H-pyrrolo[3,4-c]pyridine-5-carboxamide] | 0.072 nM
11 | Cc1cc(F)ccc1[C@H]1[C@@H]2CN(C(=O)[C@@H](C)O)C[C@H]2CCN1C(=O)N(C)[C@H](C)c1cc(C(F)(F)F)cc(C(F)(F)F)c1 [Example 31, (3aS,4R,7aS)-N-{(1R)-1-[3,5-bis(trifluoromethyl)phenyl]ethyl}-4-(4-fluoro-2-methylphenyl)-2-[(2R)-2-hydroxypropanoyl]-N-methyloctahydro-5H-pyrrolo[3,4-c]pyridine-5-carboxamide] | 0.057 nM
12 | Cc1cc(F)ccc1[C@H]1[C@@H]2CN(C(=O)C(C)(C)C)C[C@H]2CCN1C(=O)N(C)[C@H](C)c1cc(C(F)(F)F)cc(C(F)(F)F)c1 [Example 33, (3aS,4R,7aS)-N-{(1R)-1-[3,5-bis(trifluoromethyl)phenyl]ethyl}-2-(2,2-dimethylpropanoyl)-4-(4-fluoro-2-methylphenyl)-N-methyloctahydro-5H-pyrrolo[3,4-c]pyridine-5-carboxamide] | 0.066 nM
13 | Cc1cc(F)ccc1[C@H]1C2CN(C(=O)C3CCOCC3)C[C@H]2CCN1C(=O)N(C)[C@H](C)c1cc(C(F)(F)F)cc(C(F)(F)F)c1 (stereo partly drawn) [Example 34] | 0.048 nM
14 | Cc1cc(F)ccc1[C@H]1[C@@H]2CN(C3CCOCC3)C[C@H]2CCN1C(=O)N(C)[C@H](C)c1cc(C(F)(F)F)cc(C(F)(F)F)c1 [Example 35, (3aS,4R,7aS)-N-{(1R)-1-[3,5-bis(trifluoromethyl)phenyl]ethyl}-4-(4-fluoro-2-methylphenyl)-N-methyl-2-(tetrahydro-2H-pyran-4-yl)octahydro-5H-pyrrolo[3,4-c]pyridine-5-carboxamide] | 0.111 nM
15 | CC(=O)N1CCC(N2C[C@H]3CCN(C(=O)N(C)[C@H](C)c4cc(C(F)(F)F)cc(C(F)(F)F)c4)[C@@H](c4ccc(F)cc4C)[C@@H]3C2)CC1 [Example 36, (3aS,4R,7aS)-2-(1-acetylpiperidin-4-yl)-N-{(1R)-1-[3,5-bis(trifluoromethyl)phenyl]ethyl}-4-(4-fluoro-2-methylphenyl)-N-methyloctahydro-5H-pyrrolo[3,4-c]pyridine-5-carboxamide] | 0.108 nM
